{"source": "patent US20100227931A1", "about": "“ANTIFUNGAL COMPOSITION” (Kao Corporation, priority 2007, published 2010)", "assay": "Measurement of calcium-chelating constant (Ca2+ ion electrode, pH 10 buffer)", "type": "physicochemical", "conditions": "0.1 mol/L NH4Cl-NH4OH buffer pH 10; 1:1 chelate complex assumed", "experimental": "As used herein, the “calcium-chelating constant” refers a value determined by the following method. A solution of 0.1 mol/L NH4Cl-NH4OH (pH 10) is prepared as a buffer. The buffer is used for preparing all sample solutions. To measure a concentration of Ca^2+, an ion meter, Orion […], and a Ca^2+ ion electrode are used. First, a relationship between calcium chloride concentration and potential of the electrode is determined to generate a calibration curve. […] A concentration of remaining Ca^2+ is measured using the Ca^2+ ion electrode. […] [formula] [M]total: initial Ca^2+ concentration [L]total: initial chelating agent concentration [M]: remaining Ca^2+ concentration"}
{"smiles": "O=C(O)CN(CCN(CC(=O)O)CC(=O)O)CC(=O)O", "note": "[EDTA, ethylenediaminetetraacetic acid]", "values": [{"measurement": "calcium-chelating constant", "value": 12}]}
{"smiles": "O=C(O)CC(O)(CC(=O)O)C(=O)O", "note": "[citric acid]", "values": [{"measurement": "calcium-chelating constant", "value": 3}]}
